Laboratory results taken from BindingDB's records for patent US12011444 (Idorsia Pharmaceuticals, 2024).

What was measured:
[1] = target: Prostaglandin E2 receptor EP4 subtype (Homo sapiens, UniProt P35408); test: hEP4 cAMP Assay
Protocol: Plate is pre-incubated 45 minutes at room temperature. Subsequently, 2.5 microliters of PGE2 (final conc. 6 nM) are transferred into the assay plate. Plate is incubated 30 minutes at room temperature.

[2] = target: Prostaglandin E2 receptor EP2 subtype (Homo sapiens, UniProt P43116); test: hEP2 cAMP Assay
Chain of Prostaglandin E2 receptor EP2 subtype (P43116 whole entry): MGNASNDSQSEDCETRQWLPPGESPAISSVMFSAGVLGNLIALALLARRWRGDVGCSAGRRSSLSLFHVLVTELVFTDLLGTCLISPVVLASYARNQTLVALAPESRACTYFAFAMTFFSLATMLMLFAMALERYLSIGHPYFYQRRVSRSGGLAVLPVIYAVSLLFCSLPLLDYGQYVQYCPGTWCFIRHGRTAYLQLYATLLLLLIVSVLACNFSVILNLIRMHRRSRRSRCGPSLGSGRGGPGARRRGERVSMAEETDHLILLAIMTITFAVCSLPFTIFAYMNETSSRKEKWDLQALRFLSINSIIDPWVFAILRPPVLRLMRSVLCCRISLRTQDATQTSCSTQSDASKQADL
Protocol: Plate is pre-incubated 45 minutes at room temperature. […] Plate is incubated 30 minutes at room temperature. […] For each compound concentration the percentage of cAMP compared to DMSO control value as average±STDEV (each concentration is measured in duplicate) is calculated.

Chain of Prostaglandin E2 receptor EP4 subtype (P35408 whole entry): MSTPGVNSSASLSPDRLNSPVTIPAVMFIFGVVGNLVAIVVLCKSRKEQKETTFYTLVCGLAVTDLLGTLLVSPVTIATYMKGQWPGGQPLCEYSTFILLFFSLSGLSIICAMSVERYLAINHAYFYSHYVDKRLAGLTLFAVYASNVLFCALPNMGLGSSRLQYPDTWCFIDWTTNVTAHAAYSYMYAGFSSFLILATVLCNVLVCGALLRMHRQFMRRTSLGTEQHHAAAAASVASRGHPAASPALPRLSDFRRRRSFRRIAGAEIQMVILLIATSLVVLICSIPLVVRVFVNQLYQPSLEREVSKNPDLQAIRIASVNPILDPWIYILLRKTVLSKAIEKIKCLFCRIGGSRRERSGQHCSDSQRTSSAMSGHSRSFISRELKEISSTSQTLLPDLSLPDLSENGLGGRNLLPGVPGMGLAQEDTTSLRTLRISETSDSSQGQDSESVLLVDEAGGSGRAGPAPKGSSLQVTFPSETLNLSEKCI

Compound	IC50 [1] [nM]	IC50 [2] [nM]
COc1cc(F)c(F)c2c1cc(C)n2CCNc1cc(-c2ccc3oc(C)nc3c2)ncn1 [US12011444, Example 689]	558	211
COc1ccc(F)c2c1cc(C)n2CCNc1cc(-c2ccc(C(=O)O)c(C(C)(C)C)c2)ncn1 [US12011444, Example 535]	136	68
Cc1ccc(F)c2c1cc(C)n2CCNc1cc(-c2ccc3c(c2)CNC3=O)ncn1 [US12011444, Example 65]	697	41
Cc1cc(F)cc2c1cc(C)n2CCNc1cc(-c2cccc(-n3cccn3)c2)ncn1 [US12011444, Example 729]	783	45
Cc1cc(F)cc2c1cc(C)n2CCNc1cc(-c2ccc(C(=O)O)c(NCC(F)(F)F)c2)ncn1 [US12011444, Example 559]	247	4
COc1ccc(F)c2c1cc(C)n2CCNc1cc(-c2ccc(C(=O)O)c(N)c2)ncn1 [US12011444, Example 214]	786	38

Results, then the molecule that gave them:

IC50 [1] [nM]	IC50 [2] [nM]	Compound
259	11	CCOc1cc(-c2cc(NCCn3c(C)cc4c(OC)ccc(F)c43)ncn2)ccc1C(=O)NOCCO [US12011444, Example 769]
80	57	CCOc1cc(-c2cc(NCCn3c(C)cc4c(OC)ccc(F)c43)ncn2)ccc1C(=O)NOCc1ccccc1 [US12011444, Example 766]
310	19	CCOc1cc(-c2cc(NCCn3c(C)cc4c(C)ccc(F)c43)ncn2)ccc1C(=O)NOCCO [US12011444, Example 771]
139	20	COc1cc(F)cc2c1cc(C)n2CCNc1cc(-c2cc(O)cs2)ncn1 [US12011444, Example 801]
